In ChEMBL document CHEMBL1152015, “One-step synthesis of radioiodinated biotin derivatives” (Bioorg Med Chem Lett, 1996) one finds Ka data, which are given here for one compound.

Assay [1] in a line: Compound was evaluated for its affinity towards avidin.
Assay [2] is described as follows: compound was evaluated for its affinity towards streptavidin.

The structures appear in SMILES notation.

Regarding `O=C(O)CCCC[C@@H]1SC[C@@H]2NC(=O)N[C@@H]21`, the Ka in assay [1] and in assay [2] was 1e+16 M⁻¹ in each case.
